Reference: paper PMC9177545, “3-oxo-C12:2-HSL, quorum sensing molecule from human intestinal microbiota, inhibits pro-inflammatory pathways in immune cells via bitter taste receptors” (Scientific Reports, 2022)

How the values were obtained:
[1] = molecular target: T1, TAS2R138 (Mus musculus, UniProt Q7TQA6); experiment: TAS2R38/TAS2R138 inhibition experiment: TNFα secretion of RAW264.7 cells pre-treated with probenecid; format: cell-based; settings: pre-treated with 1 mM probenecid one hour, then LPS, IFNγ and AHL six hours
T1 construct: endogenous in cells; host or cells: RAW264.7 murine macrophages (ATCC)
T1 sequence (Q7TQA6 1-331): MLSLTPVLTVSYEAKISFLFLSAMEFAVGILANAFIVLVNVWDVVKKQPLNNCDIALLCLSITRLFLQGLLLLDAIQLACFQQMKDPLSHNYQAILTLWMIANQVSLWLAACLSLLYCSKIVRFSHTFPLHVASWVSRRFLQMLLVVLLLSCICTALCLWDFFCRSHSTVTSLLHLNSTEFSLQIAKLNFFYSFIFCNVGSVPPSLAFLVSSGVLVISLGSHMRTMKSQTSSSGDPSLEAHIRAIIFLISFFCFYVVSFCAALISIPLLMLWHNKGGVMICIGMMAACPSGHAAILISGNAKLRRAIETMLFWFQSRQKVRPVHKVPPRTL
Procedure: (§1) In RAW264.7 cells, inflammation was triggered with LPS (10 ng/mL, Sigma) and IFNγ (10 U/mL, R&Dsystems) for 2 h or 6 h, depending on the experiments. PBMC were exposed to LPS (10 ng/mL) and AHL for 24 h. For TAS2R38 inhibition experiments, cells were exposed to TAS2R38 allosteric inhibitor probenecid (1 mM, Sigma) for one hour before adding AHLs and the inflammatory cocktail, without changing the media.
At the end of cell treatment, the medium was centrifuged at 300g for 5 min at 4 °C. Supernatant was frozen at − 80 °C until ELISA assays. TNFα and IL-1β ELISA kits were purchased from R&D systems and performed according to the manufacturer’s instructions. Briefly, plates were coated with a capture antibody and incubated overnight. Wells were blocked using 1% bovine serum albumin-PBS solution (Sigma), then exposed to cell supernatants at room temperature for two hours. Wells were washed and incubated with the detection antibody for an additional two hours. After thorough washing, Streptavidin-HRP solution was added for 20 min. Wells were washed, then incubated with TMB (Biolegend) solution for 20 min and the reaction was stopped using 1 M H2SO4. Absorbance was measured by a spectrometer (FLUOstar Omega; BMG Labtech) at 450 nm and the absorbance at 540 nm was subtracted.

[2] = test system: STAT3; experiment: STAT3 phosphorylation by Wes capillary electrophoresis in activated RAW264.7 macrophages; format: cell-based, murine; settings: 50 µM, 2 h, LPS and IFNγ stimulated
Procedure: as §1
RAW264.7 cells were scraped in lysis buffer (20 mM Tris- HCl, pH 7.4, 5 mM EDTA, 0.15 M NaCl, 1% Triton X-100, 0.5% sodium deoxycholate) supplemented with protease inhibitor cocktail (Complete Mini; Roche, Boulogne-Billancourt, France) and phosphatase inhibitor cocktail (PhosSTOP, Sigma-Aldrich). Protein concentrations were determined using the BC Assay (Uptima/Interchim). Wes™ analyses (capillary electrophoresis system; ProteinSimple, San Jose, CA) were performed according to the manufacturer’s recommendations, and adequate protein concentrations and antibody dilutions were determined in preliminary assays to allow optimal quantitative conditions. […] Data were analysed using Compass for SW3.1 software (ProteinSimple).

[3] = test system: RAW264.7 cells; experiment: Intracellular calcium assay (Fluo-4) in RAW264.7 cells; format: cell-based, murine; settings: 1000 µM
Procedure: RAW264.7 cells were seeded in black, clear-bottom 96-well plates (Costar) at 20,000 cells per well. The next day, release of intracellular Ca^2+ was measured using Fluo-4 (Fluo-4 Direct Calcium Assay; Life Technologies) according to the manufacturer’s instructions. Medium was discarded and 100 µL of 1 X Fluo-4 dye was incubated at 37 °C for 1 h in 5% CO2, protected from light. Then, basal fluorescence was measured using a fluorospectrometer (FLUOstar Omega; BMG Labtech), excitation at 485 nm and emission at 520 nm. Molecules of interest were then added with an electronic pipette; thapsigargin (10 µM, Sigma) as a positive control, 3-oxo-C12:2-HSL (1000 µM) or DMSO 0.5%; with 8 replicates per conditions for every experiment. The fluorescence signal was immediately measured every 80 s for 2 h. Results are expressed as a ratio of the fluorescence x times over the basal fluorescence (F/F0).

## 3-oxo-C12:2-HSL
[1]
  anti-inflammatory effect (TNFα secretion) when TAS2R138 is inhibited: abolished
[2]
  phosphorylation level of STAT3 vs activated cells without AHL: not significantly altered
[3]; Fluo-4 F/F0, two hours
  slope of the calcium response curve vs control condition: significantly higher
[3]; basal state, Fluo-4, two hours, control DMSO 0.5%
  intracellular calcium level compared with the control: increase
